{"source": "ChEMBL document CHEMBL1201862", "about": "“PubChem BioAssay data set” (2004)", "key": {"[1]": {"target": "Intestinal-type alkaline phosphatase (Homo sapiens, UniProt P09923)", "sequence (P09923 whole entry)": "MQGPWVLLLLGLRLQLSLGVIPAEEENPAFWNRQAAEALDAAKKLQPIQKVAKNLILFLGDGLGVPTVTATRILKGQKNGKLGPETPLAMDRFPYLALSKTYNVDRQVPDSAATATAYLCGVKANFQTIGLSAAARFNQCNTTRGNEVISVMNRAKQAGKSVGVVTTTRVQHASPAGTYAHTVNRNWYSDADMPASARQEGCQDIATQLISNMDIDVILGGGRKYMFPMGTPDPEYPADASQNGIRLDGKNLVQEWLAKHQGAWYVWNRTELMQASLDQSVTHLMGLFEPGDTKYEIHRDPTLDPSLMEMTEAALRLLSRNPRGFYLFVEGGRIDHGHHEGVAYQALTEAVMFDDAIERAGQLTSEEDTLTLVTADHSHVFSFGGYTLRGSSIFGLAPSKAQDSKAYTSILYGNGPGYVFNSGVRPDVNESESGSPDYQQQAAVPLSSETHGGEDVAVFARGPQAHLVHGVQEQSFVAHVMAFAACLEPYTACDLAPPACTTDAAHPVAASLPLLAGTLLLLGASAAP", "assay": "inhibition of human intestinal alkaline phosphatase – biochemical, dose response (AID 488876)", "assay_type": "functional"}, "[2]": {"assay": "Luminescence Cell-Based Dose Retest to Confirm Inhibitors of Cancer Stem Cells. [Related pubchem assays (depositor defined):AID2717, AID2721]", "assay_type": "functional", "conditions": "Homo sapiens"}, "[3]": {"target": "T1, Dual specificity protein phosphatase 6 (Rattus norvegicus, UniProt Q64346)", "T1 sequence (Q64346 whole entry)": "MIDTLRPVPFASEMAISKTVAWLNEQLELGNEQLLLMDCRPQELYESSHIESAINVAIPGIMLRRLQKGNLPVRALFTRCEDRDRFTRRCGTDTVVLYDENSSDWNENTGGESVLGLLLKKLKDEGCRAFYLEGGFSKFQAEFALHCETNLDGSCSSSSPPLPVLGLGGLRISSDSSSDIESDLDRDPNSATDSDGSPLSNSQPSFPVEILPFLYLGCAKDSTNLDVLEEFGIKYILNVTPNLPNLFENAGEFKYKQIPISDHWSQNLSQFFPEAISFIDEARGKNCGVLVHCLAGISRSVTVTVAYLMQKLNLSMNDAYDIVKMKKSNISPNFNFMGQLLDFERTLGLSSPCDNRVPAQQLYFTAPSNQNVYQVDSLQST"}, "[4]": {"target": "Runt-related transcription factor 1/Core-binding factor subunit beta (Homo sapiens, UniProt Q01196+Q13951)", "sequence (Q01196 whole entry, the tested form may be a part)": "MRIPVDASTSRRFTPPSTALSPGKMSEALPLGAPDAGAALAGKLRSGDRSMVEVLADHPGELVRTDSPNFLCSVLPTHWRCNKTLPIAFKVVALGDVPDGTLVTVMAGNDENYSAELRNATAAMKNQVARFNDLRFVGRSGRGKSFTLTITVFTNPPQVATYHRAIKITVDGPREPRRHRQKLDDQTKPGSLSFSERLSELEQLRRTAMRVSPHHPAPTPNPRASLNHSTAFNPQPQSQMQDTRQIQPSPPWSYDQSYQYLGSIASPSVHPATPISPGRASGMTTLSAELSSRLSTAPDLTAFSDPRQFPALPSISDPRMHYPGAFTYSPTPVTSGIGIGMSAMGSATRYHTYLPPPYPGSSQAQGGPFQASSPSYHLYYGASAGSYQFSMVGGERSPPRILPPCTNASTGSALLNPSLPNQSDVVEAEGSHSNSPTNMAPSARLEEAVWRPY", "sequence (Q13951 whole entry, the tested form may be a part)": "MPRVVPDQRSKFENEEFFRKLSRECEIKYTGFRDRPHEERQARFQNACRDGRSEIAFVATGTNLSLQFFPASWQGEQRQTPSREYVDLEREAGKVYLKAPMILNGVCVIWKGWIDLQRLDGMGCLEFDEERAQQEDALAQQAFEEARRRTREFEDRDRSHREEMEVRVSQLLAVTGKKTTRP", "assay": "inhibitors of RUNX1 Runt–CBFb-SMMHC binding, primary screen, biochemical, FRET, Cerulean-Runt, Venus-CBFb-SMMHC, uHTS (AID 1434);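 further: partner is the CBFb-SMMHC leukemia fusion protein rather than wild-type CBFb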", "assay_type": "protein assay"}, "[5]": {"target": "T1, Dual specificity protein phosphatase 6", "assay_type": "functional"}, "[6]": {"target": "T2, RNA-binding protein pos-1 (Caenorhabditis elegans, UniProt G5EF15)", "T2 sequence (G5EF15 whole entry)": "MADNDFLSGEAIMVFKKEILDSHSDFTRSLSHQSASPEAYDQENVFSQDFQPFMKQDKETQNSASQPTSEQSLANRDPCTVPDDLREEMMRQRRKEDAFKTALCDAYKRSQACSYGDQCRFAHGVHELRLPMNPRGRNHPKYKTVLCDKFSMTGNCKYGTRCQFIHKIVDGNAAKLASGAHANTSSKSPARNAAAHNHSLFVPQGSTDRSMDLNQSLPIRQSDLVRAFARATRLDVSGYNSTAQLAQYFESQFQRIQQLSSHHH", "assay": "inhibitors of POS-1/mex-3 RNA binding, dose response, biochemical, fluorescence polarization (AID 1964);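 further: purified POS-1 fused to maltose binding protein made in E. coli; potency of compounds blocking POS-1 binding to fluorescent RNA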"}, "ORF 73": {"target": "T3, ORF 73 (Human herpesvirus 8, UniProt O40947)", "T3 sequence (O40947 whole entry)": "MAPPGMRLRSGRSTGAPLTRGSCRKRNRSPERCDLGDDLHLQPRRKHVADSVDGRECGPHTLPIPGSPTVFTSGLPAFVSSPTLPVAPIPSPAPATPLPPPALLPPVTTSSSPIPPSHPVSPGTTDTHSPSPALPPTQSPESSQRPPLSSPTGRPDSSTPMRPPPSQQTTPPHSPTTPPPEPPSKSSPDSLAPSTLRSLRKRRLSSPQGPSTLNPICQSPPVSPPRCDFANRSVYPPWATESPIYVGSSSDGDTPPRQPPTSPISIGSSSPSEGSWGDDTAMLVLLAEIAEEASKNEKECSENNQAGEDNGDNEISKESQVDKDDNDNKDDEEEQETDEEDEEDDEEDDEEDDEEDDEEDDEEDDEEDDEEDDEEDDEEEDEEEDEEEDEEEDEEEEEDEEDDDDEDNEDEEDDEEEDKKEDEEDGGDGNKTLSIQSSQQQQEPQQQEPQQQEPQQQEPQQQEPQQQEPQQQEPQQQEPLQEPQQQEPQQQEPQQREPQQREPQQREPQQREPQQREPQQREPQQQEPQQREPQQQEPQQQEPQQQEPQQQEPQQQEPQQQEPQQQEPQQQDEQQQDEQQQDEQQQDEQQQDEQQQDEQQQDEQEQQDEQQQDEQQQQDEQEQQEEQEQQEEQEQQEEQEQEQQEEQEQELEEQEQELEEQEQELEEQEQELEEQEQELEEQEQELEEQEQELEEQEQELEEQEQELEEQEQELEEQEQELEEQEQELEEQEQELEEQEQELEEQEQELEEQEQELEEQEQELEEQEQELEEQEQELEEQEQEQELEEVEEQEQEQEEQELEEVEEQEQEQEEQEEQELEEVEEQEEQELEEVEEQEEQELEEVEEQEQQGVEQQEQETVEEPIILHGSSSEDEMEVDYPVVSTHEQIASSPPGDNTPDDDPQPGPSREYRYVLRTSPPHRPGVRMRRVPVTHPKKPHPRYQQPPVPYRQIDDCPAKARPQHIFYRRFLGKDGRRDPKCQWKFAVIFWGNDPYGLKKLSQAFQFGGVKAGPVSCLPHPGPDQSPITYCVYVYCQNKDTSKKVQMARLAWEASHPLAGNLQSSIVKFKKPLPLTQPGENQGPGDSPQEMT", "assay": "inhibitors of C-LANA binding to LBS DNA, dose response, biochemical, fluorescence polarization, cherry-picked samples (AID 504725);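 further: fluorescence polarization of a labeled DNA duplex reporting LANA DNA binding; potency is for inhibitors that block LANA binding to the DNA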", "set-up": "species or system Human gammaherpesvirus 8"}, "LIM domain kinase 1": {"target": "LIM domain kinase 1 (Homo sapiens, UniProt P53667)", "assay": "Navigating the Kinome. Panel member name: LIMK1", "assay_type": "functional"}, "Beta-galactosidase": {"target": "Beta-galactosidase (Escherichia coli, UniProt Q8VNN2)", "sequence (Q8VNN2 whole entry)": "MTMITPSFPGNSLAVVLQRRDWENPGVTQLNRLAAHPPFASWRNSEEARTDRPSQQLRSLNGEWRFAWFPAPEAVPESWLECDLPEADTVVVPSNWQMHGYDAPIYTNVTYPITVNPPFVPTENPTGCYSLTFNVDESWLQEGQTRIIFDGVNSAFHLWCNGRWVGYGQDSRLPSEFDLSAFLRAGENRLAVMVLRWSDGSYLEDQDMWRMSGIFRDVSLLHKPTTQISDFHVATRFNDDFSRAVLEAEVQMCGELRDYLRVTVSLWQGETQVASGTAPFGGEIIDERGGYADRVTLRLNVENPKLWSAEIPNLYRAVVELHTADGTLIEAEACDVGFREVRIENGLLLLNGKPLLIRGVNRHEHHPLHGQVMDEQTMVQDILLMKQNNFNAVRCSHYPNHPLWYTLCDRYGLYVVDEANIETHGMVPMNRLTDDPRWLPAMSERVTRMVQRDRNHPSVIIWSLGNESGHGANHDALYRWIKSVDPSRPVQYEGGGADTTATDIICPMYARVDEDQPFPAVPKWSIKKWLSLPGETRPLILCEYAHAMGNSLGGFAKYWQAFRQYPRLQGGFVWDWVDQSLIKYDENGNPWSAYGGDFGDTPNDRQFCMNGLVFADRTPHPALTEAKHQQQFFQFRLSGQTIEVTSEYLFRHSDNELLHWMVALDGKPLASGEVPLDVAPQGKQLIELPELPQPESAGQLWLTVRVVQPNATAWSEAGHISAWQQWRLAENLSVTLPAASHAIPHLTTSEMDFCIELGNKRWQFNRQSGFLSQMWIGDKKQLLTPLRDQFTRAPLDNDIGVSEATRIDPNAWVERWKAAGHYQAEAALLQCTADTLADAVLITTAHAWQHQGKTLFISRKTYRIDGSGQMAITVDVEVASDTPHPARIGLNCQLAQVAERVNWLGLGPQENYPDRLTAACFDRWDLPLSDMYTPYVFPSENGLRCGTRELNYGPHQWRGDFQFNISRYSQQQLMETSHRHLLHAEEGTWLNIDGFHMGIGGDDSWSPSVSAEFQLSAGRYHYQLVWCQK", "assay": "beta-galactosidase enzyme inhibitors and activators, dose response, artefact control for CCR6 antagonist project, biochemical, E. coli enzyme, set 3 (AID 504712)", "assay_type": "functional"}, "[7]": {"assay": "cytotoxicity in HEK-293T cells, dose response, cytotoxicity control for TCR NF-kB inhibitor project, luminescence, T-cell screen hits (AID 489026);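 further: cells exposed to compound about 14 hours before the viability readout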", "assay_type": "functional, cell-based"}, "BJ": {"system": "BJ", "assay": "cells", "assay_type": "functional, cell-based", "conditions": "Homo sapiens"}, "[8]": {"assay": "cytotoxicity toward DRD oncogenic fibroblasts, dose response, cell-based, non-viral oncogenic, luminescence (AID 1934)", "assay_type": "functional", "conditions": "Homo sapiens"}, "[9]": {"target": "MAP kinase-activated protein kinase 2 (Homo sapiens, UniProt P49137)", "assay_type": "functional"}, "[10]": {"target": "Rho-associated protein kinase 2 (Homo sapiens, UniProt O75116)", "sequence (O75116 whole entry)": "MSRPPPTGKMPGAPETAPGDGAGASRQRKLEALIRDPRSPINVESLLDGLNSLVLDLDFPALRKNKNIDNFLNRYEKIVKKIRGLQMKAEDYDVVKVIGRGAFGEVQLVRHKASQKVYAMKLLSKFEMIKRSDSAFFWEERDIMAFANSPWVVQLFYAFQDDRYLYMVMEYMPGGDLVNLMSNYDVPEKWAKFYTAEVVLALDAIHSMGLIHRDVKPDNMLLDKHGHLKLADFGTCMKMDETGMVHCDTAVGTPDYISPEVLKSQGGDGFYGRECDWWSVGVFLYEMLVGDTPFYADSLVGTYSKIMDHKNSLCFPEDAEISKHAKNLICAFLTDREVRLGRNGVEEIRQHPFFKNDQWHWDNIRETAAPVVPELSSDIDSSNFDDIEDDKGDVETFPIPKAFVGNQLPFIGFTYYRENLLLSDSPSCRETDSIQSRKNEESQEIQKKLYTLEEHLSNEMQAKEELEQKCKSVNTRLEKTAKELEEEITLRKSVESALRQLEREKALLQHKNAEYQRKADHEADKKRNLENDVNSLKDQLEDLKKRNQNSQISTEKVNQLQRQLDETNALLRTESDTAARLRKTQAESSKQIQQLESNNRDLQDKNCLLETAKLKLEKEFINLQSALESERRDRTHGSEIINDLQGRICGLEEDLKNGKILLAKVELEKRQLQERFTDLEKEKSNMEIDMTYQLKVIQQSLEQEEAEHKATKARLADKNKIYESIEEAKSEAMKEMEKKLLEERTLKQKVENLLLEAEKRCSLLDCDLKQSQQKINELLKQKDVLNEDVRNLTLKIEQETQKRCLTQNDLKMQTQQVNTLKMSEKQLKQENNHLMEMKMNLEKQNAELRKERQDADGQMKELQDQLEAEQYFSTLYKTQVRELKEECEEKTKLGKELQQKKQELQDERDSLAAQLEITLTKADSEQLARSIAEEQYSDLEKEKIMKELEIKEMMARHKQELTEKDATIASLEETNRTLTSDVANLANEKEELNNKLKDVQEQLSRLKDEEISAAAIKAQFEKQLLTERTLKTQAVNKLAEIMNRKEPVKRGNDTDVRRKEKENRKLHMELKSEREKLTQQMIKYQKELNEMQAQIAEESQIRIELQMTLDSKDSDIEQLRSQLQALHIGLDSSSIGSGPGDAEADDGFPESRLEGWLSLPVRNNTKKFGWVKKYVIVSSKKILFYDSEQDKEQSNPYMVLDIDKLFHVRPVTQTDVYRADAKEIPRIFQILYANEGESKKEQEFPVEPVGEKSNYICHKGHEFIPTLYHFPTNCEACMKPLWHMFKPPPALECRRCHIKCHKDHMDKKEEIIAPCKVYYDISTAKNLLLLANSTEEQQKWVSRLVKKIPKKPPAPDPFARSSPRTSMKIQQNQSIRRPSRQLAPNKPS", "assay_type": "functional"}, "[11]": {"target": "Serine/threonine-protein kinase PLK4 (Homo sapiens, UniProt O00444)", "sequence (O00444 whole entry)": "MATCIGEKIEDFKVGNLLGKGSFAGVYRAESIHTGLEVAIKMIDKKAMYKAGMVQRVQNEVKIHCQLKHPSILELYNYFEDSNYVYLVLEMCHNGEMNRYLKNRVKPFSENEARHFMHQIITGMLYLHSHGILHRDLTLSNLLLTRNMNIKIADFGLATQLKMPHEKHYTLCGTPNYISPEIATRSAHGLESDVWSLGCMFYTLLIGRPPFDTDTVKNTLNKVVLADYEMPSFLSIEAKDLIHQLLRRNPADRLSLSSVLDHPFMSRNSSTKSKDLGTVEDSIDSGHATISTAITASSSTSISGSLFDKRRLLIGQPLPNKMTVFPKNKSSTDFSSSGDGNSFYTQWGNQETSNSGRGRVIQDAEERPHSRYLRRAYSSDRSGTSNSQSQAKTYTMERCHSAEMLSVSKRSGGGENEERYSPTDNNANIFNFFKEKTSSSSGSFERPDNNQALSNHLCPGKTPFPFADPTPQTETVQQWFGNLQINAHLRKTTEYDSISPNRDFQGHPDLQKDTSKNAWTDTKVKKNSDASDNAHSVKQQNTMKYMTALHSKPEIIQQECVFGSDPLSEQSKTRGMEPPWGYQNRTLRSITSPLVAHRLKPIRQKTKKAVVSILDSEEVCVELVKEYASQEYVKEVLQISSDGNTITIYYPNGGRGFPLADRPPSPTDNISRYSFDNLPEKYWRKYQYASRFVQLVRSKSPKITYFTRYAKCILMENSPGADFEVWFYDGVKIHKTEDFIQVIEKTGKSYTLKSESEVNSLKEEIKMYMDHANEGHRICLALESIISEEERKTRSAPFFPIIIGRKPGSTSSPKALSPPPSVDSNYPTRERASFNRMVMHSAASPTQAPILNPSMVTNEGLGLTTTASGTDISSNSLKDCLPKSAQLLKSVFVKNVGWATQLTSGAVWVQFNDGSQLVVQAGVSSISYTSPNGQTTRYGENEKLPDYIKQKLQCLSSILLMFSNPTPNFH", "assay_type": "functional"}, "[12]": {"target": "Inhibitor of nuclear factor kappa-B kinase subunit beta (Homo sapiens, UniProt O14920)", "assay_type": "functional"}, "SRSF protein kinase 1": {"target": "SRSF protein kinase 1 (Homo sapiens, UniProt Q96SB4)", "assay_type": "functional"}, "[13]": {"target": "Tyrosine-protein kinase Blk (Homo sapiens, UniProt P51451)", "sequence (P51451 whole entry)": "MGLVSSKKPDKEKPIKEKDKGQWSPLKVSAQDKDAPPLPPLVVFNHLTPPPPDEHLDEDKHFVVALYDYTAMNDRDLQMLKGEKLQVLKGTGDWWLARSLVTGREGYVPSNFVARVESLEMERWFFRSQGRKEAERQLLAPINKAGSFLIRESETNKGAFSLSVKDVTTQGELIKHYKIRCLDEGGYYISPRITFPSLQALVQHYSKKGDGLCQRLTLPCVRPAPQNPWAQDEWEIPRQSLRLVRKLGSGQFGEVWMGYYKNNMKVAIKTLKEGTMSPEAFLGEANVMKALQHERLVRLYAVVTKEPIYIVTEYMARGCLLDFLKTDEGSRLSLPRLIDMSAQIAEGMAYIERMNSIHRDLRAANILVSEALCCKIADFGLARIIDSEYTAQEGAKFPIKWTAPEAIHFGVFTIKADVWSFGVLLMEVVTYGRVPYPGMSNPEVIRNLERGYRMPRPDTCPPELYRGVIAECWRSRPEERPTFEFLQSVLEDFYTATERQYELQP", "assay_type": "functional"}, "[14]": {"target": "Casein kinase II subunit alpha (Homo sapiens, UniProt P68400)", "assay_type": "functional"}}, "note": "The source made the active and inactive calls."}
{"smiles": "O=C1/C(=C\\c2cccc(O)c2O)SC(=S)N1Cc1ccccc1", "values": [{"measurement": "IC50", "setting": "[1]", "value": "> 100 µM (inactive)"}, {"measurement": "AC50", "setting": "[2]", "value": "1.67 µM (active)"}]}
{"smiles": "COc1cccc2c1NC(C(=O)O)C1CC=CC21", "note": "(centres undefined)", "values": [{"measurement": "IC50", "setting": "[3]", "value": "14 µM (active)"}, {"measurement": "IC50", "setting": "[4]", "value": "> 100 µM (inactive)"}, {"measurement": "IC50", "setting": "[5]", "value": "13.1 µM (active)"}, {"measurement": "EC50", "setting": "[6]", "value": "19.5 µM (inconclusive)"}, {"measurement": "AC50", "setting": "ORF 73", "value": "35.8 µM (active)"}]}
{"smiles": "COc1c(-c2nc3ccccc3[nH]2)c(O)cc2oc(C)cc(=O)c12", "values": [{"measurement": "Ki", "setting": "LIM domain kinase 1", "value": "0.0316 µM (active)"}]}
{"smiles": "CCc1ccc(S(=O)(=O)/N=C2\\C=C(Nc3ccc(O)cc3)C(=O)c3ccccc32)cc1", "values": [{"measurement": "IC50", "setting": "Beta-galactosidase", "value": "41.3 µM (inactive)"}, {"measurement": "IC50", "setting": "[7]", "value": "3.96 µM (active)"}, {"measurement": "EC50", "setting": "BJ", "value": "2.96 µM (active)"}, {"measurement": "EC50", "setting": "[8]", "value": "3.33 µM (active)"}]}
{"smiles": "Cc1ccc(F)c(NC(=O)Nc2ccc(-c3cccc4[nH]nc(N)c34)cc2)c1", "note": "[LINIFANIB]", "values": [{"measurement": "Ki", "setting": "[9]", "value": "> 7.94 µM (inactive)"}, {"measurement": "pKi", "setting": "[10]", "value": 5.6}, {"measurement": "Ki", "setting": "[11]", "value": "0.631 µM (active)"}, {"measurement": "Ki", "setting": "[12]", "value": "> 3.16 µM (inactive)"}, {"measurement": "Ki", "setting": "SRSF protein kinase 1", "value": "7.94 µM (active)"}, {"measurement": "Ki", "setting": "[13]", "value": "0.316 µM (active)"}, {"measurement": "Ki", "setting": "[14]", "value": "5.01 µM (active)"}]}
